Reference: article PMC9310519, “Small-molecule inhibitor of intestinal anion exchanger SLC26A3 for treatment of hyperoxaluria and nephrolithiasis” (JCI Insight, 2022)
pIC50: −log10 of the molar value.

Tests used:
SLC26A3 (human) = SLC26A3 (human) (Homo sapiens, UniProt P40879); assay: YFP halide-sensor anion transport assay in HEK293 cells expressing human SLC26A3; assay type: cell-based
SLC26A3 (murine) = SLC26A3 (murine) (Mus musculus, UniProt Q9WVC8); assay: YFP oxalate/chloride exchange assay in FRT cells stably expressing murine SLC26A3; Transwell oxalate transport; assay type: cell-based
5-HT1A Human Serotonin = biological target: T1, 5-HT1A Human Serotonin (Homo sapiens, UniProt P08908); assay: biochemical; design: Eurofins SafetyScreen44 radioligand binding displacement, percent inhibition, duplicate; conditions: radioligand binding
T1 construct: gene HTR1A
Protocol: (§1) Possible off-target effects of DRAinh-A270 were investigated by panel screening (Eurofins SafetyScreen44). […] Testing for CYP450 and hERG inhibition also supported DRAinh-A270 safety (Supplemental Tables 2 and 3, respectively). Finally, metabolic stability of DRAinh-A270 was measured in mouse, rat, and human microsomes.

5-HT1B Human Serotonin = biological target: T2, 5-HT1B Human Serotonin (Homo sapiens, UniProt P28222); assay: biochemical; design: Eurofins SafetyScreen44 radioligand binding displacement, percent inhibition, duplicate; conditions: radioligand binding
T2 construct: gene HTR1B
Protocol: as §1

5-HT2A Human Serotonin = biological target: T3, 5-HT2A Human Serotonin (Homo sapiens, UniProt P28223); assay: biochemical; design: Eurofins SafetyScreen44 radioligand binding displacement, percent inhibition, duplicate; conditions: radioligand binding
T3 construct: gene HTR2A
Protocol: as §1

5-HT2B Human Serotonin = biological target: T4, 5-HT2B Human Serotonin (Homo sapiens, UniProt P41595); assay: biochemical; design: Eurofins SafetyScreen44 radioligand binding displacement, percent inhibition, duplicate; conditions: radioligand binding
T4 construct: gene HTR2B
Protocol: as §1

5-HT3 Human Serotonin = biological target: T5, 5-HT3 Human Serotonin (Homo sapiens, UniProt P46098); assay: biochemical; design: Eurofins SafetyScreen44 radioligand binding displacement, percent inhibition, duplicate; conditions: radioligand binding
T5 construct: gene HTR3A
Protocol: as §1

A2A Human Adenosine = biological target: T6, A2A Human Adenosine (Homo sapiens, UniProt P29274); assay: biochemical; design: Eurofins SafetyScreen44 radioligand binding displacement, percent inhibition, duplicate; conditions: radioligand binding
T6 construct: gene ADORA2A
Protocol: as §1

AR Human Androgen = AR Human Androgen (Homo sapiens, UniProt P10275); assay: biochemical; design: Eurofins SafetyScreen44 radioligand binding displacement, percent inhibition, duplicate; conditions: radioligand binding
Protocol: as §1

CB1 Human Cannabinoid = biological target: T7, CB1 Human Cannabinoid (Homo sapiens, UniProt P21554); assay: biochemical; design: Eurofins SafetyScreen44 radioligand binding displacement, percent inhibition, duplicate; conditions: radioligand binding
T7 construct: gene CNR1
Protocol: as §1

CB2 Human Cannabinoid = biological target: T8, CB2 Human Cannabinoid (Homo sapiens, UniProt P34972); assay: biochemical; design: Eurofins SafetyScreen44 radioligand binding displacement, percent inhibition, duplicate; conditions: radioligand binding
T8 construct: gene CNR2
Protocol: as §1

[1] = biological target: T9, CCK1 (CCKA) Human Cholecystokinin (Homo sapiens, UniProt P32238); assay: biochemical; design: Eurofins SafetyScreen44 radioligand binding displacement, percent inhibition, duplicate; conditions: radioligand binding
T9 construct: gene CCKAR
Protocol: as §1

D1 Human Dopamine = biological target: T10, D1 Human Dopamine (Homo sapiens, UniProt P21728); assay: biochemical; design: Eurofins SafetyScreen44 radioligand binding displacement, percent inhibition, duplicate; conditions: radioligand binding
T10 construct: gene DRD1
Protocol: as §1

D2S Human Dopamine = biological target: T11, D2S Human Dopamine (Homo sapiens, UniProt P14416); assay: biochemical; design: Eurofins SafetyScreen44 radioligand binding displacement, percent inhibition, duplicate; conditions: radioligand binding
T11 construct: gene DRD2; D2S short isoform
Protocol: as §1

[2] = biological target: T12, DAT Human Dopamine Transporter (Homo sapiens, UniProt Q01959); assay: biochemical; design: Eurofins SafetyScreen44 radioligand binding displacement, percent inhibition, duplicate; conditions: radioligand binding
T12 construct: gene SLC6A3
Protocol: as §1

ETA Human Endothelin = biological target: T13, ETA Human Endothelin (Homo sapiens, UniProt P25101); assay: biochemical; design: Eurofins SafetyScreen44 radioligand binding displacement, percent inhibition, duplicate; conditions: radioligand binding
T13 construct: gene EDNRA
Protocol: as §1

GR Human Glucocorticoid = biological target: T14, GR Human Glucocorticoid (Homo sapiens, UniProt P04150); assay: biochemical; design: Eurofins SafetyScreen44 radioligand binding displacement, percent inhibition, duplicate; conditions: radioligand binding
T14 construct: gene NR3C1
Protocol: as §1

H1 Human Histamine = biological target: T15, H1 Human Histamine (Homo sapiens, UniProt P35367); assay: biochemical; design: Eurofins SafetyScreen44 radioligand binding displacement, percent inhibition, duplicate; conditions: radioligand binding
T15 construct: gene HRH1
Protocol: as §1

H2 Human Histamine = biological target: T16, H2 Human Histamine (Homo sapiens, UniProt P25021); assay: biochemical; design: Eurofins SafetyScreen44 radioligand binding displacement, percent inhibition, duplicate; conditions: radioligand binding
T16 construct: gene HRH2
Protocol: as §1

[3] = biological target: T17, M1 Human Acetylcholine (Muscarinic) (Homo sapiens, UniProt P11229); assay: biochemical; design: Eurofins SafetyScreen44 radioligand binding displacement, percent inhibition, duplicate; conditions: radioligand binding
T17 construct: gene CHRM1
Protocol: as §1

[4] = biological target: T18, M2 Human Acetylcholine (Muscarinic) (Homo sapiens, UniProt P08172); assay: biochemical; design: Eurofins SafetyScreen44 radioligand binding displacement, percent inhibition, duplicate; conditions: radioligand binding
T18 construct: gene CHRM2
Protocol: as §1

[5] = biological target: T19, M3 Human Acetylcholine (Muscarinic) (Homo sapiens, UniProt P20309); assay: biochemical; design: Eurofins SafetyScreen44 radioligand binding displacement, percent inhibition, duplicate; conditions: radioligand binding
T19 construct: gene CHRM3
Protocol: as §1

[6] = biological target: T20, NET Human Norepinephrine Transporter (Homo sapiens, UniProt P23975); assay: biochemical; design: Eurofins SafetyScreen44 radioligand binding displacement, percent inhibition, duplicate; conditions: radioligand binding
T20 construct: gene SLC6A2
Protocol: as §1

V1A Human Vasopressin = biological target: T21, V1A Human Vasopressin (Homo sapiens, UniProt P37288); assay: biochemical; design: Eurofins SafetyScreen44 radioligand binding displacement, percent inhibition, duplicate; conditions: radioligand binding
T21 construct: gene AVPR1A
Protocol: as §1

[7] = biological target: T22, alpha1A Human Adrenoceptor (Homo sapiens, UniProt P35348); assay: biochemical; design: Eurofins SafetyScreen44 radioligand binding displacement, percent inhibition, duplicate; conditions: radioligand binding
T22 construct: gene ADRA1A
Protocol: as §1

[8] = biological target: T23, alpha2A Human Adrenoceptor (Homo sapiens, UniProt P08913); assay: biochemical; design: Eurofins SafetyScreen44 radioligand binding displacement, percent inhibition, duplicate; conditions: radioligand binding
T23 construct: gene ADRA2A
Protocol: as §1

beta1 Human Adrenoceptor = biological target: T24, beta1 Human Adrenoceptor (Homo sapiens, UniProt P08588); assay: biochemical; design: Eurofins SafetyScreen44 radioligand binding displacement, percent inhibition, duplicate; conditions: radioligand binding
T24 construct: gene ADRB1
Protocol: as §1

beta2 Human Adrenoceptor = biological target: T25, beta2 Human Adrenoceptor (Homo sapiens, UniProt P07550); assay: biochemical; design: Eurofins SafetyScreen44 radioligand binding displacement, percent inhibition, duplicate; conditions: radioligand binding
T25 construct: gene ADRB2
Protocol: as §1

delta (DOP) Human Opioid = biological target: T26, delta (DOP) Human Opioid (Homo sapiens, UniProt P41143); assay: biochemical; design: Eurofins SafetyScreen44 radioligand binding displacement, percent inhibition, duplicate; conditions: radioligand binding
T26 construct: gene OPRD1
Protocol: as §1

hERG = biological target: T27, hERG (Homo sapiens, UniProt Q12809); assay: in vitro; design: Eurofins SafetyScreen44 radioligand binding displacement, percent inhibition, duplicate; conditions: radioligand binding
T27 construct: gene KCNH2
Protocol: as §1

kappa (KOP) Human Opioid = biological target: T28, kappa (KOP) Human Opioid (Homo sapiens, UniProt P41145); assay: biochemical; design: Eurofins SafetyScreen44 radioligand binding displacement, percent inhibition, duplicate; conditions: radioligand binding
T28 construct: gene OPRK1
Protocol: as §1

mu (MOP) Human Opioid = biological target: T29, mu (MOP) Human Opioid (Homo sapiens, UniProt P35372); assay: biochemical; design: Eurofins SafetyScreen44 radioligand binding displacement, percent inhibition, duplicate; conditions: radioligand binding
T29 construct: gene OPRM1
Protocol: as §1

[9] = biological target: T30, nAChR (alpha4/beta2) Human Ion Channel (Homo sapiens, UniProt P17787+P43681); assay: biochemical; design: Eurofins SafetyScreen44 radioligand binding displacement, percent inhibition, duplicate; conditions: radioligand binding
T30 construct: gene CHRNB2
Protocol: as §1

Acetylcholinesterase = biological target: T31, Acetylcholinesterase (Homo sapiens, UniProt P22303); assay: biochemical; design: Eurofins SafetyScreen44 enzymatic assay, percent inhibition, duplicate; conditions: enzymatic assay
T31 construct: gene ACHE
Protocol: as §1

[10] = biological target: T32, COX1 Human Cyclooxygenase (Homo sapiens, UniProt P23219); assay: biochemical; design: Eurofins SafetyScreen44 enzymatic assay, percent inhibition, duplicate; conditions: enzymatic assay
T32 construct: gene PTGS1
Protocol: as §1

[11] = biological target: T33, COX2 Human Cyclooxygenase (Homo sapiens, UniProt P35354); assay: biochemical; design: Eurofins SafetyScreen44 enzymatic assay, percent inhibition, duplicate; conditions: enzymatic assay
T33 construct: gene PTGS2
Protocol: as §1

[12] = biological target: T34, Monoamine Oxidase A (MAO-A) (Homo sapiens, UniProt P21397); assay: biochemical; design: Eurofins SafetyScreen44 enzymatic assay, percent inhibition, duplicate; conditions: enzymatic assay
T34 construct: gene MAOA
Protocol: as §1

[13] = biological target: PDE3A Human Phosphodiesterase (Homo sapiens, UniProt Q14432); assay: biochemical; design: Eurofins SafetyScreen44 enzymatic assay, percent inhibition, duplicate; conditions: enzymatic assay
Protocol: as §1

[14] = biological target: T35, PDE4D2 Human Phosphodiesterase (Homo sapiens, UniProt Q08499); assay: biochemical; design: Eurofins SafetyScreen44 enzymatic assay, percent inhibition, duplicate; conditions: enzymatic assay
T35 construct: gene PDE4D; PDE4D2 isoform
Protocol: as §1

T26 sequence (P41143 whole entry): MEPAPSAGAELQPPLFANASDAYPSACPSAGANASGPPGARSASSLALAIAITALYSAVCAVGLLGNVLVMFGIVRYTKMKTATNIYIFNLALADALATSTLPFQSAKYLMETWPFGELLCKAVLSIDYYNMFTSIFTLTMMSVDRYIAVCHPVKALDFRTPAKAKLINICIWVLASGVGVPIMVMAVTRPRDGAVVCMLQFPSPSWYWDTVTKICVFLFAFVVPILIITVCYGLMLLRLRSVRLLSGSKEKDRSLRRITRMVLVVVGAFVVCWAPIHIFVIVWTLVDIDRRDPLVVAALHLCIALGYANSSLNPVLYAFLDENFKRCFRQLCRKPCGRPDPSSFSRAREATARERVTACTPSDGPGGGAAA
T16 sequence (P25021 whole entry): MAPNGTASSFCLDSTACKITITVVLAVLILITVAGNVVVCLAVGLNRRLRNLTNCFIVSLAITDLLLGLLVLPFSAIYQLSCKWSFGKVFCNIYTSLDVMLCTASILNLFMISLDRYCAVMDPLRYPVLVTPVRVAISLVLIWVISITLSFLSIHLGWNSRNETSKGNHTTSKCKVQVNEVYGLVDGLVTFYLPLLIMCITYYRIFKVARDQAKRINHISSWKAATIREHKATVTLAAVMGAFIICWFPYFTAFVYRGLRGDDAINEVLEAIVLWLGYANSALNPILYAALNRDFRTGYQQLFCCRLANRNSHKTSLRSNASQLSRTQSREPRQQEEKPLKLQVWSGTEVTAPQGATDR
T7 sequence (P21554 whole entry): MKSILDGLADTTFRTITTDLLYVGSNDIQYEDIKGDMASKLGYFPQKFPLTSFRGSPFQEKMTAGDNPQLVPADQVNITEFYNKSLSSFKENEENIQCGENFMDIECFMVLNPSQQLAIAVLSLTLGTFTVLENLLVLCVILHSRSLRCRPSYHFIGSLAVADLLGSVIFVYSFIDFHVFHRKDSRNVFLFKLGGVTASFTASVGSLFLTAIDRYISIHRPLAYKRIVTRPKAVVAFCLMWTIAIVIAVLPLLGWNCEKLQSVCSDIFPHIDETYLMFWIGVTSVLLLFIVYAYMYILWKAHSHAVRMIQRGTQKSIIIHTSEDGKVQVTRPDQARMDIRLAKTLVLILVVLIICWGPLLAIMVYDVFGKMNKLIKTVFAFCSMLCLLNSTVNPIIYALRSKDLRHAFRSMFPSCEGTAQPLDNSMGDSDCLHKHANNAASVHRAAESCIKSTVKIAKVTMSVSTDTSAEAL
T15 sequence (P35367 whole entry): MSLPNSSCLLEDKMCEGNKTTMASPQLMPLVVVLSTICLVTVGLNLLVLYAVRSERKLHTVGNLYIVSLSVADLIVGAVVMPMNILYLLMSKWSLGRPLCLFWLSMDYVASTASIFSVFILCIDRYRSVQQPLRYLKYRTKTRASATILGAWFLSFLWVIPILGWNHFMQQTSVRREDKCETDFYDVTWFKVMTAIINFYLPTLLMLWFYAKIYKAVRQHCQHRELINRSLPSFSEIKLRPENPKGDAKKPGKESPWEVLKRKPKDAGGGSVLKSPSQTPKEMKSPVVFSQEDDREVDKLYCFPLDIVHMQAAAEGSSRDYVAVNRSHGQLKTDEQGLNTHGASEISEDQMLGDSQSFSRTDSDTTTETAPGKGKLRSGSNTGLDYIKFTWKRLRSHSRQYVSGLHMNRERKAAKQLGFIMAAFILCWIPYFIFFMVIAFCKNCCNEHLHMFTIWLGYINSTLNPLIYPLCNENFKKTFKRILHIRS
T13 sequence (P25101 whole entry): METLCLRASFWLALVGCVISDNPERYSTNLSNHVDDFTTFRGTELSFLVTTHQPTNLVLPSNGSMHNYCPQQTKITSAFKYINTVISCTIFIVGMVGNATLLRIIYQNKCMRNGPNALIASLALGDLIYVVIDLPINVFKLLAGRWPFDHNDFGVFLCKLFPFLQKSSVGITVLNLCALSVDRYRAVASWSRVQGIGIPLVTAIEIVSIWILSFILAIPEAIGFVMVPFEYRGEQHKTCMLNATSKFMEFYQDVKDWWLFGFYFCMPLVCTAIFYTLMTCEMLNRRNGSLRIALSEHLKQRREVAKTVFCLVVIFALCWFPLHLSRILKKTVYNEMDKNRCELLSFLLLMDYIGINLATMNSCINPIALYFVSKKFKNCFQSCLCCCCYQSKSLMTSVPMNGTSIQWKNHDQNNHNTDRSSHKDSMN
T4 sequence (P41595 whole entry): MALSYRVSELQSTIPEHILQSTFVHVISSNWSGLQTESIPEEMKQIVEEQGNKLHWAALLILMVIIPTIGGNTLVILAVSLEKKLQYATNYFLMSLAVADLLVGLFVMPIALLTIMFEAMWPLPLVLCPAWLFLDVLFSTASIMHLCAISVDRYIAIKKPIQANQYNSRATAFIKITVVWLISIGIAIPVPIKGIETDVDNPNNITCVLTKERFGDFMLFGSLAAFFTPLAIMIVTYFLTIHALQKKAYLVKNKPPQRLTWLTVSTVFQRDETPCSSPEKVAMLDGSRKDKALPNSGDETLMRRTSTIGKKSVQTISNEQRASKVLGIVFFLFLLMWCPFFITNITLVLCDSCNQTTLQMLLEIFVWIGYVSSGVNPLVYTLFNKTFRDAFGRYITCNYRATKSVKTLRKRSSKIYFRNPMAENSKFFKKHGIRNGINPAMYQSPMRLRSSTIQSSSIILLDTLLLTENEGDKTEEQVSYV
T8 sequence (P34972 whole entry): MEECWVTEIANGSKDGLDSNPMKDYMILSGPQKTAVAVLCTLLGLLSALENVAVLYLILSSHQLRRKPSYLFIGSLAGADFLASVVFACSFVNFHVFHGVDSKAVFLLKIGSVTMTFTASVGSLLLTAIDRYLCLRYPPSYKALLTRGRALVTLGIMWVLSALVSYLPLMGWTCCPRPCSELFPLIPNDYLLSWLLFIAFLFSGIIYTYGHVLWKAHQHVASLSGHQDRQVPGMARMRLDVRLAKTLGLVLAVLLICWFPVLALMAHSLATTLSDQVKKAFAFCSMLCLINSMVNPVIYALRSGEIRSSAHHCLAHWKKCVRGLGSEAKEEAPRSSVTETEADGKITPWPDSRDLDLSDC
T14 sequence (P04150 whole entry): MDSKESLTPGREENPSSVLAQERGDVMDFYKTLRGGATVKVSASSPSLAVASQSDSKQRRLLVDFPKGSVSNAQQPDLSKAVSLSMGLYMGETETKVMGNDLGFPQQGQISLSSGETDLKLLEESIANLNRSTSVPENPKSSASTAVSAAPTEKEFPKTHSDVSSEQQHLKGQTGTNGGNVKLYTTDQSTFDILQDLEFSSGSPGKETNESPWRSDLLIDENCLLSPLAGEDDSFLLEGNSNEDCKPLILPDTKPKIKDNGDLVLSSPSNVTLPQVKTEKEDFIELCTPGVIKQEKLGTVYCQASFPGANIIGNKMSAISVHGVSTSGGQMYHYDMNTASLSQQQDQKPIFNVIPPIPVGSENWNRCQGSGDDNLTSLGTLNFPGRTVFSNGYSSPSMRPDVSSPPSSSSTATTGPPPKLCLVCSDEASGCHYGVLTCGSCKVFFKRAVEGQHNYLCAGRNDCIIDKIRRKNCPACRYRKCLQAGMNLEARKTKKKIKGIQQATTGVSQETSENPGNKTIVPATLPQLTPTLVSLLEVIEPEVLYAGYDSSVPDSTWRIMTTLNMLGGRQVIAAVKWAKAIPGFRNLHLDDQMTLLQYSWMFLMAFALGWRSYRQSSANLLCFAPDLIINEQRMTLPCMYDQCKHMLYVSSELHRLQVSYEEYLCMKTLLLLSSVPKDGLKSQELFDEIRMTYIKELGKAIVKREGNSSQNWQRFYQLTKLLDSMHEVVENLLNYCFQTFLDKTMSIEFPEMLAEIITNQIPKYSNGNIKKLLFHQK
T25 sequence (P07550 whole entry): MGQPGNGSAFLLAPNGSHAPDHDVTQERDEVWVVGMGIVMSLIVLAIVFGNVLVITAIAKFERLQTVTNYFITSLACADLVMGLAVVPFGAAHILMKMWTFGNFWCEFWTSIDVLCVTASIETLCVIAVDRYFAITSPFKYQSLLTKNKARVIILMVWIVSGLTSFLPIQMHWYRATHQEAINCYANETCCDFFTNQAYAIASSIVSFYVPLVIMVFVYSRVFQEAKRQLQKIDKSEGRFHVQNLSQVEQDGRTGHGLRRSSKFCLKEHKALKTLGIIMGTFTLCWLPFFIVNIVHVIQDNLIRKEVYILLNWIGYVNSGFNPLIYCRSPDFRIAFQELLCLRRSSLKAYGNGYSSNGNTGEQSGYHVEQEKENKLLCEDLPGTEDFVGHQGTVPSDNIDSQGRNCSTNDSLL
T10 sequence (P21728 whole entry): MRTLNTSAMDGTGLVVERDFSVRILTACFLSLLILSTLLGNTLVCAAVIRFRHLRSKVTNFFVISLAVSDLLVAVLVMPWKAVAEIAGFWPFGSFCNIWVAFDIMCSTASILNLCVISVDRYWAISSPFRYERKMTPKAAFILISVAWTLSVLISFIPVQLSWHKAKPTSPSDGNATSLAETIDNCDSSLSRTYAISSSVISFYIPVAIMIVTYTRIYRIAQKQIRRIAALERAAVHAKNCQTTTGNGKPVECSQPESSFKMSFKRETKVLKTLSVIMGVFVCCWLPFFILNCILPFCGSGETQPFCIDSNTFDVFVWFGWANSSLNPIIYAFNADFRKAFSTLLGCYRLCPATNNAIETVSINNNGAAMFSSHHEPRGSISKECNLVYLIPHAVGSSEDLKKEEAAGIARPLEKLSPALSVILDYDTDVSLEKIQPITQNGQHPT

Cc1c(CC(=O)O)c(=O)oc2c(C)c(OCc3cccc(I)c3)ccc12 [4az (in ref. 19), DRAinh-A270]
pIC50 (SLC26A3 (human)): 7.70 | pIC50 (SLC26A3 (murine)): ~7.22 | inhibition at 10 µM (5-HT1A Human Serotonin): 0% | inhibition at 10 µM (5-HT1B Human Serotonin): -1% | inhibition at 10 µM (5-HT2A Human Serotonin): 17% | inhibition at 10 µM (5-HT2B Human Serotonin): 64% | inhibition at 10 µM (5-HT3 Human Serotonin): -6% | inhibition at 10 µM (A2A Human Adenosine): 46% | inhibition at 10 µM (AR Human Androgen): 13% | inhibition at 10 µM (CB1 Human Cannabinoid): -3% | inhibition at 10 µM (CB2 Human Cannabinoid): -1% | inhibition at 10 µM [1]: -5% | inhibition at 10 µM (D1 Human Dopamine): 13% | inhibition at 10 µM (D2S Human Dopamine): 2% | inhibition at 10 µM [2]: -2% | inhibition at 10 µM (ETA Human Endothelin): 13% | inhibition at 10 µM (GR Human Glucocorticoid): -7% | inhibition at 10 µM (H1 Human Histamine): 27% | inhibition at 10 µM (H2 Human Histamine): -2% | inhibition at 10 µM [3]: 9% | inhibition at 10 µM [4]: -3% | inhibition at 10 µM [5]: 8% | inhibition at 10 µM [6]: 29% | inhibition at 10 µM (V1A Human Vasopressin): -1% | inhibition at 10 µM [7]: 5% | inhibition at 10 µM [8]: 47% | inhibition at 10 µM (beta1 Human Adrenoceptor): 14% | inhibition at 10 µM (beta2 Human Adrenoceptor): 3% | inhibition at 10 µM (delta (DOP) Human Opioid): -3% | inhibition at 10 µM (hERG): 19% | inhibition at 10 µM (kappa (KOP) Human Opioid): 7% | inhibition at 10 µM (mu (MOP) Human Opioid): -5% | inhibition at 10 µM [9]: -3% | inhibition at 10 µM (Acetylcholinesterase): 10% | inhibition at 10 µM [10]: -1% | inhibition at 10 µM [11]: 15% | inhibition at 10 µM [12]: 73% | inhibition at 10 µM [13]: 4% | inhibition at 10 µM [14]: -2%
